pIC50: −log10 of the molar value.
Target: PI3K-γ (Homo sapiens, UniProt P48736)
Experiment: PI3K-gamma fluorescence polarization assay
Conditions: not given

Chain of PI3K-γ (P48736 whole entry, species assumed): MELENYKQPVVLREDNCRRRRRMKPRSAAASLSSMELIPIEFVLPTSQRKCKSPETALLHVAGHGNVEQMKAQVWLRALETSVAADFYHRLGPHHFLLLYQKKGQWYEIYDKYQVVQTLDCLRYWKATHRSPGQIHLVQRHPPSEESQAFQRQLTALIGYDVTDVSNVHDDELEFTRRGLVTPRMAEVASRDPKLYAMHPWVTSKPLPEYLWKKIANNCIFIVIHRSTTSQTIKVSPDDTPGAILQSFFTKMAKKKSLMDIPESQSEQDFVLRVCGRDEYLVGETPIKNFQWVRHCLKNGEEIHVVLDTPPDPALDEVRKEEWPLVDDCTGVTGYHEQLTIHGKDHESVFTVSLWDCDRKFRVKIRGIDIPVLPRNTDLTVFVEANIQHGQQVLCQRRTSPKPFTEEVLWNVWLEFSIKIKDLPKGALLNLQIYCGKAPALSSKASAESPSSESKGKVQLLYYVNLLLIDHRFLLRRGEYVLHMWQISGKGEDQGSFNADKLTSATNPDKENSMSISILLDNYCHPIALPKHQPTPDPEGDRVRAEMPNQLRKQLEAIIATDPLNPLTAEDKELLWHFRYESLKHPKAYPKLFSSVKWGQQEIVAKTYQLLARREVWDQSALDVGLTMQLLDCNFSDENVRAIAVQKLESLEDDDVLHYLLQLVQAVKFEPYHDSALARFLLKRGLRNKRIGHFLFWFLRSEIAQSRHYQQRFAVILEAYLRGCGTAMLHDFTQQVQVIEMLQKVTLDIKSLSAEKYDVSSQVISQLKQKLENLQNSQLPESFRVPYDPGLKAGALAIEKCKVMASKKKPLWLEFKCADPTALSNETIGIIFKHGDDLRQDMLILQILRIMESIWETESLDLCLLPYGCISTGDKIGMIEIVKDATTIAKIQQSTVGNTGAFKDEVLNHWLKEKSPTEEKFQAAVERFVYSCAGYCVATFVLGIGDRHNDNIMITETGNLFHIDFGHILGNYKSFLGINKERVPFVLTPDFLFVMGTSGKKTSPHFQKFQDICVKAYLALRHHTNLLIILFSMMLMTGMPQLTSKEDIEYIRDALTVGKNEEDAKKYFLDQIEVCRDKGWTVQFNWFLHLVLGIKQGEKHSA

CCN1CCN(c2ccc(NC(=O)Nc3ccc(-c4nc(N5C6CCC5COC6)nc(N5CCOC[C@H]5C)n4)cc3)cc2)CC1 [Example 440, 1-(4-(4-(3-oxa-8-azabicyclo[3.2.1]octan-8-yl)-6-((R)-3-methylmorpholino)-1,3,5-triazin-2-yl)phenyl)-3-(4-(4-ethylpiperazin-1-yl)phenyl)urea] and CC(C)N1CCN(c2ccc(NC(=O)Nc3ccc(-c4nc(N5C6CCC5COC6)nc(N5CCOC[C@H]5C)n4)cc3)cc2)CC1 [Example 441, 1-(4-(4-(3-oxa-8-azabicyclo[3.2.1]octan-8-yl)-6-((R)-3-methylmorpholino)-1,3,5-triazin-2-yl)phenyl)-3-(4-(4-isopropylpiperazin-1-yl)phenyl)urea] cannot be ordered by pIC50: less than 5.00 for the first, less than 5.00 for the second.

Same assay, conditions: read-out: IC50 PI3Kγ

In order of falling pIC50:
1. C[C@H]1COCCN1c1nc(-c2ccc(NC(=O)Nc3ccc(C(=O)N4CCN(C)CC4)cc3)cc2)nc(N2C3CCC2COC3)n1 [Example 835, 1-(4-{4-[(3S)-3-methylmorpholin-4-yl]-6-(3-oxa-8-azabicyclo[3.2.1]oct-8-yl)-1,3,5-triazin-2-yl}phenyl)-3-{4-[(4-methylpiperazin-1-yl)carbonyl]phenyl}urea]  7.18
2. CC(C)N1CCN(C(=O)c2ccc(NC(=O)Nc3ccc(-c4nc(N5C6CCC5COC6)nc(N5CCOC[C@@H]5C)n4)cc3)cc2)CC1 [Example 830, 1-(4-{4-[(3S)-3-methylmorpholin-4-yl]-6-(3-oxa-8-azabicyclo[3.2.1]oct-8-yl)-1,3,5-triazin-2-yl}phenyl)-3-(4-{[4-(propan-2-yl)piperazin-1-yl]carbonyl}phenyl)urea]  7.15
3. CN1CCN(c2ccc(NC(=O)Nc3ccc(-c4nc(C5=CCOCC5)nc(N5C6CCC5COC6)n4)cc3)cc2)CC1 [Example 405, 1-(4-(4-(3-oxa-8-azabicyclo[3.2.1]octan-8-yl)-6-(3,6-dihydro-2H-pyran-4-yl)-1,3,5-triazin-2-yl)phenyl)-3-(4-(4-methylpiperazin-1-yl)phenyl)urea]  6.71
4. CN1CCN(C(=O)c2ccc(NC(=O)Nc3ccc(-c4nc(C5CCOCC5)nc(N5C6CCC5COC6)n4)cc3)cc2)CC1 [Example 438, 1-(4-(4-(3-oxa-8-azabicyclo[3.2.1]octan-8-yl)-6-(tetrahydro-2H-pyran-4-yl)-1,3,5-triazin-2-yl)phenyl)-3-(4-(4-methylpiperazine-1-carbonyl)phenyl)urea]  6.18
5. CC(C)N1CCN(C(=O)c2ccc(NC(=O)Nc3ccc(-c4nc(N5C6CCC5COC6)nc(N5CCOC[C@H]5C)n4)cc3)cc2)CC1 [Example 445, 1-(4-(4-(3-oxa-8-azabicyclo[3.2.1]octan-8-yl)-6-((R)-3-methylmorpholino)-1,3,5-triazin-2-yl)phenyl)-3-(4-(4-isopropylpiperazine-1-carbonyl)phenyl)urea]  6.00
6. C[C@@H]1COCCN1c1nc(-c2ccc(NC(=O)Nc3ccc(C(=O)N4CCN(C)CC4)cc3)cc2)nc(N2C3CCC2COC3)n1 [Example 444, 1-(4-(4-(3-oxa-8-azabicyclo[3.2.1]octan-8-yl)-6-((R)-3-methylmorpholino)-1,3,5-triazin-2-yl)phenyl)-3-(4-(4-methylpiperazine-1-carbonyl)phenyl)urea]  5.96
7. CN(C)C1CCN(c2ccc(NC(=O)Nc3ccc(-c4nc(C5CCOCC5)nc(N5C6CCC5COC6)n4)cc3)cc2)CC1 [Example 437, 1-(4-(4-(3-oxa-8-azabicyclo[3.2.1]octan-8-yl)-6-(tetrahydro-2H-pyran-4-yl)-1,3,5-triazin-2-yl)phenyl)-3-(4-(4-(dimethylamino)piperidin-1-yl)phenyl)urea]  5.79
8. CN1CCN(c2ccc(NC(=O)Nc3ccc(-c4nc(C5CCOCC5)nc(N5C6CCC5COC6)n4)cc3)cc2)CC1 [Example 407, 1-(4-(4-(3-oxa-8-azabicyclo[3.2.1]octan-8-yl)-6-(tetrahydro-2H-pyran-4-yl)-1,3,5-triazin-2-yl)phenyl)-3-(4-(4-methylpiperazin-1-yl)phenyl)urea]  5.65
9. CNCc1ccc(NC(=O)Nc2ccc(-c3nc(N4C5CCC4COC5)nc(N4C5CCC4COC5)n3)cc2)cc1 [Example 288, 1-[4-(4,6-di-3-oxa-8-azabicyclo[3.2.1]oct-8-yl-1,3,5-triazin-2-yl)phenyl]-3-{4-[(methylamino)methyl]phenyl}urea]  5.56
10. CN1CCN(c2ccc(NC(=O)Nc3ccc(-c4nc(N5CCSCC5)nc(N5C6CCC5COC6)n4)cc3)cc2)CC1 [Example 394, 1-(4-(4-(3-oxa-8-azabicyclo[3.2.1]octan-8-yl)-6-thiomorpholino-1,3,5-triazin-2-yl)phenyl)-3-(4-(4-methylpiperazin-1-yl)phenyl)urea]  5.49
11. O=C(Nc1ccc(CO)cc1)Nc1ccc(-c2nc(N3C4CCC3COC4)nc(N3C4CCC3COC4)n2)cc1 [Example 287, 1-[4-(4,6-di-3-oxa-8-azabicyclo[3.2.1]oct-8-yl-1,3,5-triazin-2-yl)phenyl]-3-[4-(hydroxymethyl)phenyl]urea]  5.48
12. CN(C)CCOc1ccc(NC(=O)Nc2ccc(-c3nc(N4C5CCC4COC5)nc(N4C5CCC4COC5)n3)cc2)cc1 [Example 289, 1-{4-[2-(dimethylamino)ethoxy]phenyl}-3-[4-(4,6-di-3-oxa-8-azabicyclo[3.2.1]oct-8-yl-1,3,5-triazin-2-yl)phenyl]urea]  5.41
13. C[C@@H]1COCCN1c1nc(-c2ccc(NC(=O)Nc3ccc(OCCN(C)C)cc3)cc2)nc(N2C3CCC2COC3)n1 [Example 419, 1-(4-(4-(3-oxa-8-azabicyclo[3.2.1]octan-8-yl)-6-((R)-3-methylmorpholino)-1,3,5-triazin-2-yl)phenyl)-3-(4-(2-(dimethylamino)ethoxy)phenyl)urea]  5.37
14. CCN1CCN(c2ccc(NC(=O)Nc3ccc(-c4nc(C5CCOCC5)nc(N5C6CCC5COC6)n4)cc3)cc2)CC1 [Example 434, 1-(4-(4-(3-oxa-8-azabicyclo[3.2.1]octan-8-yl)-6-(tetrahydro-2H-pyran-4-yl)-1,3,5-triazin-2-yl)phenyl)-3-(4-(4-ethylpiperazin-1-yl)phenyl)urea]  5.32
15. CC(C)Nc1nc(-c2ccc(NC(=O)Nc3ccc(N4CCN(C)CC4)cc3)cc2)nc(N2C3CCC2COC3)n1 [Example 378, 1-(4-(4-(3-oxa-8-azabicyclo[3.2.1]octan-8-yl)-6-(isopropylamino)-1,3,5-triazin-2-yl)phenyl)-3-(4-(4-methylpiperazin-1-yl)phenyl)urea]  5.27
16. CC(C)N(C)c1nc(-c2ccc(NC(=O)Nc3ccc(N4CCN(C)CC4)cc3)cc2)nc(N2C3CCC2COC3)n1 [Example 389, 1-(4-(4-(3-oxa-8-azabicyclo[3.2.1]octan-8-yl)-6-(isopropyl(methyl)amino)-1,3,5-triazin-2-yl)phenyl)-3-(4-(4-methylpiperazin-1-yl)phenyl)urea]  5.25
17. O=C(Nc1ccc(OCCO)cc1)Nc1ccc(-c2nc(N3C4CCC3COC4)nc(N3C4CCC3COC4)n2)cc1 [Example 372, 1-(4-(4,6-di(3-oxa-8-azabicyclo[3.2.1]octan-8-yl)-1,3,5-triazin-2-yl)phenyl)-3-(4-(2-hydroxyethoxy)phenyl)urea]  5.14
